# According to patent publication US20050215978A1, “Method of enhancing catheter patency using a citrate salt catheter lock solution” (priority 2001, published 2005):
# Tests used:
# bacteremia = assay: monthly incidence of bacteremia in outpatient hemodialysis unit by catheter lock solution; type: in vivo, human patients
# [1] = urokinase use to open occluded or low-flowing tunneled catheters / clotting of catheters in dialysis unit; type: in vivo, human patients; conditions: satellite outpatient hospital unit, Jan 1998-May 1999
substance,measurement,setting,value
heparin,"incidence of bacteremia, percent of patients in the unit per month","bacteremia; RTC unit, 70 patients, about 60% with tunneled catheters, heparin Jan-Jul 1998, citrate locks Sep 1998-Jul 1999, 47% citrate May-Jul 1999",4.6%
same,"incidence of bacteremia, all other months","bacteremia; satellite outpatient hospital unit, 20 ESRD patients, Jan 1998-May 1999",zero
same,"incidence of bacteremia, percent of all patients, the one month with a case","bacteremia; satellite outpatient hospital unit, 20 ESRD patients, Jan 1998-May 1999, one patient in one month",5%
same,urokinase use,[1],remained low
